The source of these data is article PMC6705239 (ACS Omega, 2019).

A short description of one data set: in vitro. Particulars: dog.
Data set [1] has as its system Influenza A virus H1N1 (H1N1A/Weiss/43). Briefly: microbe, parasite or virus in culture. The class given is cell-based. Particulars: for EC50: 72 h.
Data set [2] has as its system NA from influenza A virus H1N1. Format: biochemical.
The subject of the next data set is influenza A virus H1N1. The arrangement: species or system SPF KM mice. Particulars: mouse, in vivo.

Entries after “also recorded” stand apart in the source; their conditions may differ.

Consider `COC1=C(c2ccc(C)cc2)C(=O)OC1(C)OC` (stereo not drawn) [Compound 26, 3,4-dimethoxy-4-methyl-2-(p-tolyl) butenolide], for which, in “in vitro”, the CC50 turned out to be 184 ± 5.1 µM.

`COC1=C(c2ccc(F)c(F)c2)C(=O)OC1(C)OC` (stereo not drawn) [Compound 30, 2-(3,4-difluorophenyl)-3,4-dimethoxy-4-methylbutenolide] yielded an EC50 in data set [1] (Influenza A virus, H1N1, MDCK) of 33.4 ± 1 µM. Besides, in the data set “in vitro”, the CC50 was determined as 109 ± 7.6 µM.

Turning to `COC1=C(c2cccc(F)c2)C(=O)OC1(C)OC` (stereo not drawn) [Compound 28, 2-(3-fluorophenyl)-3,4-dimethoxy-4-methylbutenolide], the 50% effective concentration (EC50) in data set [1] (Influenza A virus, H1N1, MDCK) was 9.4 ± 0.8 µM. Further, in the data set “in vitro”, the CC50 was 19.8 ± 1 µM.

Compound `COC1(C)OC(=O)C(c2ccc(F)cc2)=C1N1CCOCC1` (stereo not drawn) [Compound 57] returned an EC50 in data set [1] (Influenza A virus, H1N1, MDCK) of 14.3 ± 1.7 µM. Further, the CC50 in “in vitro” amounted to 776 ± 63.2 µM.

Take `NC(=O)c1ncn([C@@H]2O[C@H](CO)[C@@H](O)[C@H]2O)n1` [Ri, Ribavirin, reference compound]: the EC50 in data set [1] (Influenza A virus, H1N1, MDCK) was found to be 105 ± 51 µM. Further, the CC50 in “in vitro” came out at 532 ± 20.3 µM.

In data set [1] (Influenza A virus, H1N1, MDCK), `COC1(C)OC(=O)C(c2ccc(Cl)cc2)=C1N1CCOCC1` (stereo not drawn) [Compound 58] showed a concentration for a half-maximal effect (EC50) of 34.7 ± 5.9 µM. In addition, in the data set “in vitro”, the CC50 was found to be 209 ± 14.1 µM.

`COC1=C(c2ccc(Cl)cc2)C(=O)OC1(C)C(O)c1ccc(N2CCOCC2)cc1` (stereo not drawn) [Compound 48] displayed a CC50 in the data set “in vitro” of 130 ± 8.1 µM.

As for `COC1=C(c2ccc(Br)cc2)C(=O)OC1(C)OC` (stereo not drawn) [Compound 25, 2-(4-bromophenyl)-3,4-dimethoxy-4-methylbutenolide], in data set [1] (Influenza A virus, H1N1, MDCK), the EC50 was 61.1 ± 5 µM. Also, the IC50 in data set [1] (Influenza A virus, H1N1, MDCK, read-out: IC50 for inhibiting influenza A virus H1N1) is 61 µM. Further, in the data set “in vitro”, the CC50 came out at 266 ± 18.4 µM.

Take `COC1=C(c2ccc(Cl)cc2)C(=O)OC1(C)C(O)c1ccc(C)cc1` (stereo not drawn) [Compound 46]: in the data set “in vitro”, the CC50 was 75.2 ± 3.6 µM.

Compound `COC1=C(c2ccccc2)C(=O)OC1(C)OC` (stereo not drawn) [Compound 22, 3,4-dimethoxy-4-methyl-2-phenylbutenolide] had an EC50 in data set [1] (Influenza A virus, H1N1, MDCK) of 26.3 ± 4.4 µM. This compound also yielded a CC50 in the data set “in vitro” of 168 ± 9.7 µM.

With `COC1=C(c2ccccc2F)C(=O)OC1(C)OC` (stereo not drawn) [Compound 29, 2-(2-fluorophenyl)-3,4-dimethoxy-4-methylbutenolide], the CC50 in “in vitro” was determined as 204 ± 3.2 µM.

The compound `COC1(C)OC(=O)C(c2cccc(F)c2)=C1N1CCOCC1` (stereo not drawn) [Compound 60] came in with a CC50 in “in vitro” of 147 ± 8.1 µM.

The compound `COC1=C(c2ccc(Cl)cc2)C(=O)OC1(C)OC` (stereo not drawn) [Compound 24, 2-(4-chlorophenyl)-3,4-dimethoxy-4-methylbutenolide] had a CC50 in “in vitro” of 98.3 ± 3.5 µM.

`CCOC(=O)C1=C[C@@H](OC(CC)CC)[C@H](NC(C)=O)[C@@H](N)C1` [Os, Oseltamivir, reference compound] displayed a concentration giving a half-maximal response (EC50) in data set [1] (Influenza A virus, H1N1, MDCK) of 0.28 ± 0.05 µM. The CC50 in the data set “in vitro” is greater than 800 µM.

Turning to `COc1ccc(C2=C(N3CCOCC3)C(C)(OC)OC2=O)cc1` (stereo not drawn) [Compound 37, 2-(4-methoxyphenyl)-4-methoxy-4-methyl-3-morpholinobutenolide], in data set [2], the “inhibition rate of NA activity (in words)” value is recorded as “increased in a dose-dependent manner”. The “antivirus activity against influenza A H1N1 (in words)” value in data set [1] was “dose-dependent; also recorded: better antivirus activity than positive control ribavirin”. The EC50 in data set [1] (Influenza A virus, H1N1, MDCK) is 6.7 ± 1.3 µM. Besides, in the data set with influenza A virus H1N1, the “body temperature after virus infection” value is recorded as “closed to the control groups”; the “body weight after virus infection” value is “kept increasing”; the “gross lesions in lungs” value is “less lesion”; the “lung histopathology (H&E staining)” value was “less lung inflammation and lesions”. Also, the “viral load / expression of virus gene in lung tissue by qRT-PCR” value in the data set on influenza A virus H1N1 is recorded as “inhibit the expression of the influenza A virus gene in the lung; also recorded: Lower viral loads; also recorded: lower than that of the model group”. Moreover, in the data set “in vitro”, the CC50 is 536 ± 15.1 µM.

As for `COC1=C(c2ccc(Cl)cc2)C(=O)OC1(C)C(O)c1ccccn1` (stereo not drawn) [Compound 47], in “in vitro”, the CC50 stood at 155 ± 6.8 µM.
